What all share (assay type): in vivo
For assay [1], the system named is bench-top tasting panel. In words: Umami evaluation on salted potato chips (Example 19). As to conditions: 1% salted potato chips; for umami strength ranking: 14 panelists. Here is the method: (§1) Umami evaluations were done in dry noodle seasoning, chicken broth, retorted chicken broth, cheese sauce and salted potato chip applications. Each application was prepared using MSG, the experimental umami tastant and a blank which contained neither MSG nor the experimental umami tastant. Next, using a bench-top tasting panel (consisting of 7 to 14 panelists), panelists were asked to record the sensory attribute differences between the control (blank), the MSG application and the application containing the experimental umami tastant. These sensory attributes include umami, saltiness, bitterness, off-notes, mouth feel attribute, lingering attribute and flavor profile differences.
One percent salt was added to a standard unsalted potato chip.

Assay [2] relates to bench-top tasting panel. In words: Umami evaluation in chicken broth. The conditions noted are these: Example 1 0.0002% by weight; for umami strength ranking: MSG 0.1%, 11 panelists. Here is the method: as §1, with “differences. […] Turmeric was plated on salt and chicken fat and blended well. Next, the remaining ingredients were added and mixed until well blended. A concentration of 2.5% of the resulting mixture in hot water (82° C. (180° F.)) generated the noodle seasoning broth.” for “differences.”

Assay [3] concerns bench-top tasting panel. In words: Umami evaluation in retorted chicken broth (Example 20). As to conditions: MSG 0.20%, Example 3 4 ppm, Example 13 3 ppm, Example 10 4 ppm, Example 9 3 ppm, 9 panelists. Here is the method:
as §1
The procedure for the preparation of the retorted chicken broth is the same as in example 16. Compounds from Examples 3, 9, 10 and 13 were spiked individually into the chicken broth generating six samples, as described below.

In assay [4] the test system is bench-top tasting panel. Description: Umami evaluation in cheese sauce. The conditions noted are these: Example 1 0.00025% by weight; for umami strength ranking: MSG 0.1%, 14 panelists. Here is the method: as §1, with “differences. […] Annatto was plated on a mixture of salt, citric acid and lactic acid and blended well. Next, the remaining ingredients were added and mixed until well blended.” for “differences.”

The subject of assay [5] is bench-top tasting panel. Description: Umami evaluation in noodle seasoning broth. The conditions noted are these: Example 1 0.0001% by weight; for umami strength ranking: MSG 0.1%, 11 panelists. Here is the method: as §1, with “differences. [table] Turmeric was plated on salt and palm fat and blended well. Next, the remaining ingredients were added and mixed until well blended. A concentration of 1.5% of the resulting mixture in hot water generated the noodle seasoning broth. The following three samples were tasted and compared. [table]” for “differences.”

Assay [6] has as its system bench-top tasting panel. Description: Bain marie (hot water bath) test with chicken broth. The conditions noted are these: hot water bath 150° F. for 4 hours, MSG 0.20%, Example 3 3 ppm, Example 13 2 ppm (table), Example 10 3 ppm, Example 9 2 ppm, 7 panelists. Here is the method: as §1
Chicken broth was prepared as previously described in example 15. Compounds from Examples 3, 9, 10 and 13 were added to the chicken broth in the concentrations described below and placed in a hot water bath (150° F.) for 4 hours prior to taste evaluation.

Assay [7] concerns bench-top tasting panel. In words: Umami evaluation on salted potato chips (Example 22). As to conditions: 1% salted potato chips; MSG 0.2%, Example 3 10 ppm, Example 13 10 ppm, Example 10 6 ppm, Example 9 10 ppm; 9 panelists. Here is the method: as §1
The potato chips were prepared as previously described in example 19 and spiked with compounds from Examples 3, 9, 10 and 13 as described below.

Assay [8] has as its system bench-top tasting panel. Description: Umami evaluation in retorted chicken broth (Example 17). As to conditions: Example 1 0.0002% by weight. Here is the method: Umami evaluations were done in dry noodle seasoning, chicken broth, retorted chicken broth, cheese sauce and salted potato chip applications. Each application was prepared using MSG, the experimental umami tastant and a blank which contained neither MSG nor the experimental umami tastant. Next, using a bench-top tasting panel (consisting of 7 to 14 panelists), panelists were asked to record the sensory attribute differences between the control (blank), the MSG application and the application containing the experimental umami tastant. These sensory attributes include umami, saltiness, bitterness, off-notes, mouth feel attribute, lingering attribute and flavor profile differences. The chicken broth generated in Example 16 was transferred to a can and sealed. Prior to sealing one batch was treated with the compound of Example 1 (0.0002% by weight) and the other batch was canned without the ingredient generating a blank control sample. After sealing the cans, they were heated to 121° C. (250° F.) (under pressure) for 25 minutes, cooled to room temperature and then stored in the refrigerator for two weeks. Prior to tasting, the cans were opened and reheated to 65.5° C. (150° F.).

In a further assay the test system is panel of trained tasters. In words: Taste evaluation in water. Here is the method:
A one percent cut of each compound of Examples 1-13 was prepared first. The hydrochloride salts were cut directly into water, while the free base examples were cut into ethanol. Next, 100 ml of a 1 ppm, 10 ppm and 20 ppm solution were prepared. The 1 ppm standards were prepared by addition of 0.0126 ml (cut in ethanol) or 0.01 ml (cut in water) to an amber bottle followed by dilution to 100 g total sample weight using water. The 10 and 20 ppm solutions were prepared similarly, but using 0.126 ml ethanol/0.1 ml water or 0.252 ml ethanol/0.2 ml water of the 1% cuts respectively. Next, the samples were evaluated by a panel of trained tasters.

Where [9] appears, read: MSG 0.2%, Example 1 3 ppm (0.0003% by weight).

For `N[C@@H](CCC(=O)O)C(=O)[O-].[Na+]` [MSG, monosodium glutamate, reference compound], the umami strength ranking result is “MSG>3 ppm Example 1>1 ppm Example 1>Blank Salted Chips” in the assay with bench-top tasting panel [1] (setting [9]); “MSG>Example 1>Blank Chicken Broth” with bench-top tasting panel [2]; “MSG>3 ppm example 9>3 ppm Example 13>4 ppm Example 3>Blank retorted chicken broth>4 ppm Example 10” in the assay with bench-top tasting panel [3]; “MSG>Example 1>Blank Cheese Sauce” in the assay with bench-top tasting panel [4]; “MSG>Example 1>Blank Noodle Seasoning” in the assay on bench-top tasting panel [5]; “MSG>2 ppm example 9>3 ppm Example 10=4 ppm Example 13>Blank chicken broth>3 ppm Example 3” in the assay on bench-top tasting panel [6]. In the assay with bench-top tasting panel [7], the umami strength ranking is 10 ppm Example 3>10 ppm Example 9>MSG>10 ppm Example 13>blank>6 ppm Example 10.
On to `c1ccc(SCCc2ccccn2)cc1` [Example 1, 2-(2-(PHENYLTHIO)ETHYL)PYRIDINE], for which the umami strength ranking result in the assay on bench-top tasting panel [1] (Example 1 1 ppm (0.0001% by weight)) was “MSG>3 ppm Example 1>1 ppm Example 1>Blank Salted Chips”; with bench-top tasting panel [1] (setting [9]) it was “MSG>3 ppm Example 1>1 ppm Example 1>Blank Salted Chips”; in the assay with bench-top tasting panel [2], “MSG>Example 1>Blank Chicken Broth”; with bench-top tasting panel [4] it was “MSG>Example 1>Blank Cheese Sauce”; in the assay with bench-top tasting panel [5], “MSG>Example 1>Blank Noodle Seasoning”. The “attribute noted by some panelists” value in the assay with bench-top tasting panel [1] (Example 1 containing samples (1 ppm and 3 ppm)) is recorded as “peppery attribute”; in the assay with bench-top tasting panel [2], “green pepper/chili off-note attribute”; with bench-top tasting panel [4], “green pepper attribute”; in the assay with bench-top tasting panel [5], “green pepper attribute”. Further, the “Number of panelists who noted green pepper offnote” value with bench-top tasting panel [1] (Example 1 samples, of 14 panelists) was determined as 2; in the assay on bench-top tasting panel [2] (of 11 panelists), 3; in the assay with bench-top tasting panel [4] (of 14 panelists), 4; in the assay on bench-top tasting panel [8] (retorted chicken broth, of 10 panelists), 4; in the assay on bench-top tasting panel [5] (of 11 panelists) it was 2. In addition, the umami versus control result in the assay with bench-top tasting panel [8] (retorted chicken broth (121° C., 25 minutes, stored two weeks), 10 panelists) is “more umami than the control”. Besides, the off-notes entry with bench-top tasting panel [8] (retorted chicken broth) was “pepper off-notes”. The aroma entry was “green” with panel of trained tasters (1 ppm in water); “green” in the assay with panel of trained tasters (10 ppm in water); “Green, tomato, bell” with panel of trained tasters (20 ppm in water). Besides, the taste result in the assay with panel of trained tasters (1 ppm in water) is recorded as “weak to moderate umami”; with panel of trained tasters (10 ppm in water) it was “moderate umami, very weak: bitter, very weak”; with panel of trained tasters (20 ppm in water), “strong umami, very weak bitter, weak metallic”.

The values above are taken from patent publication US10178875B2, “Methods of modifying or imparting taste using organic compounds” (Givaudan, S.A., priority 2013, dated 2019).
